Data taken from ChEMBL document CHEMBL3352260, “Identification and development of biphenyl substituted iminosugars as improved dual glucosylceramide synthase/neutral glucosylceramidase inhibitors” (J Med Chem, 2014).

Tests used:
[1] = molecular target: T1, Lysosomal acid glucosylceramidase (Homo sapiens, UniProt P04062)
T1 sequence (P04062 whole entry): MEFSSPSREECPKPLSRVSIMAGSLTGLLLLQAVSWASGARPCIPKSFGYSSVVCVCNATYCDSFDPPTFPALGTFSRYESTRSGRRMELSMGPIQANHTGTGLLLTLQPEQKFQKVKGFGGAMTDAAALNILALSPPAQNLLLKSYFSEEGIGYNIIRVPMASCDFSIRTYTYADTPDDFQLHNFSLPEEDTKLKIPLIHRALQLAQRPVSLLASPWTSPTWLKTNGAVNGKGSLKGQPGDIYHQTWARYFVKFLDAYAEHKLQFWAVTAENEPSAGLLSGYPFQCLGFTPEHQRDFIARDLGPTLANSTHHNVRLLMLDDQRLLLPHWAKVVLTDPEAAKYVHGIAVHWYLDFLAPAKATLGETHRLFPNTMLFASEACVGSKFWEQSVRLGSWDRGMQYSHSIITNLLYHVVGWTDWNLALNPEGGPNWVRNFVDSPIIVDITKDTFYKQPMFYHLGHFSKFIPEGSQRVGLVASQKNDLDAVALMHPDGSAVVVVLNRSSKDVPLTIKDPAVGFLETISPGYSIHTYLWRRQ

[2] = molecular target: T2, Ceramide glucosyltransferase (Homo sapiens, UniProt Q16739)
T2 sequence (Q16739 whole entry): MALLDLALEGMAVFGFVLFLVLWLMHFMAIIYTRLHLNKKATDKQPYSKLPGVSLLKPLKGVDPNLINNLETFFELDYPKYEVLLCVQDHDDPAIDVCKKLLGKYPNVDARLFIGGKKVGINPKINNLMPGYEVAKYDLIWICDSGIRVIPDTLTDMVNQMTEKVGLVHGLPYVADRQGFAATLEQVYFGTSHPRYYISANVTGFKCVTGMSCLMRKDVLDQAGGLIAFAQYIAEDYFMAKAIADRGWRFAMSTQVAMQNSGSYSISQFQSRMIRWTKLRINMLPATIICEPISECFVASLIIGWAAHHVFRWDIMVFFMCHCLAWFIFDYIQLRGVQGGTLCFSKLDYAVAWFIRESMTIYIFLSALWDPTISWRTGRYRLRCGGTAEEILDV

[3] = molecular target: T3, Beta-glucosidase (Homo sapiens, UniProt Q9HCG7)
T3 sequence (Q9HCG7 whole entry): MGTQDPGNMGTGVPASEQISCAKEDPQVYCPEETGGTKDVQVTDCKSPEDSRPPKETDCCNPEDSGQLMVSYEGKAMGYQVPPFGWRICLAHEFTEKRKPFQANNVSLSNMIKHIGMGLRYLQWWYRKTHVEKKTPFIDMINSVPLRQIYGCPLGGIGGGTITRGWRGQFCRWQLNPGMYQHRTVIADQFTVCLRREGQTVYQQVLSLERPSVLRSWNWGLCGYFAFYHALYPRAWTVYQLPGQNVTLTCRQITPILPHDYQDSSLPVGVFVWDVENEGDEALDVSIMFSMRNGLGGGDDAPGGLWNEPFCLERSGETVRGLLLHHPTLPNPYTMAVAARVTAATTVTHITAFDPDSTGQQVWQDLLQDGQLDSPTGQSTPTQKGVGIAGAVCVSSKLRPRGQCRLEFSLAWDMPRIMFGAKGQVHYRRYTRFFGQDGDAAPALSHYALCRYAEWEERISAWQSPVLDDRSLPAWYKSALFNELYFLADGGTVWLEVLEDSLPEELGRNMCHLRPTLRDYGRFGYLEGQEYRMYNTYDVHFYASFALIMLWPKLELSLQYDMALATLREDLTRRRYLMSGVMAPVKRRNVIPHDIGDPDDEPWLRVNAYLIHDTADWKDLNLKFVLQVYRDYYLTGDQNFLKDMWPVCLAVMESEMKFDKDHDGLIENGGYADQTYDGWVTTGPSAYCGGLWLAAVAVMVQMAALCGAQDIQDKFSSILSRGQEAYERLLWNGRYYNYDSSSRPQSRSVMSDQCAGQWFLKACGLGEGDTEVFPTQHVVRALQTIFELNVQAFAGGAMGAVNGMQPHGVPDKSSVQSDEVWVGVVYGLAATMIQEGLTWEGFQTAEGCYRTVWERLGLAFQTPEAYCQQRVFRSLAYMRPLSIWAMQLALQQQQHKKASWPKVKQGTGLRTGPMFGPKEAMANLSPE

SMILES	IC50 [1]	IC50 [2]	IC50 [3]
OC[C@H]1[C@@H](O)[C@H](O)[C@@H](O)CN1CCCCCOCC1CCCCC1	60000 nM	70 nM	6 nM
CC(C)CCC[C@@H](C)[C@H]1CC[C@H]2[C@@H]3CC=C4C[C@@H](OCCCCCN5C[C@H](O)[C@@H](O)[C@H](O)[C@H]5CO)CC[C@]4(C)[C@H]3CC[C@]12C	500 nM	1000 nM	5 nM
OC[C@@H]1[C@@H](O)[C@H](O)[C@@H](O)CN1CCCCCOCc1ccc(-c2ccc3c(c2)OCCCO3)cc1			15 nM
CC(C)=CCC/C(C)=C/CC/C(C)=C/CCOCCCCCN1C[C@H](O)[C@@H](O)[C@H](O)[C@@H]1CO	50000 nM	2500 nM	100 nM
OC[C@@H]1[C@@H](O)[C@H](O)[C@@H](O)CN1CCCCCOCc1ccc(-c2cccnc2)cc1		2000 nM	
CC(C)CCC[C@@H](C)[C@H]1CC[C@H]2[C@@H]3CC=C4C[C@@H](OCCCCCN5C[C@H](O)[C@@H](O)[C@H](O)[C@@H]5CO)CC[C@]4(C)[C@H]3CC[C@]12C	15000 nM	1000 nM	20 nM
OC[C@@H]1[C@@H](O)[C@H](O)[C@@H](O)CN1CCCCCOCc1ccc(-c2ccccc2F)cc1		75 nM	
OC[C@@H]1[C@@H](O)[C@H](O)[C@@H](O)CN1CCCCCOCc1ccc(-c2ccc3c(c2)OCCO3)cc1	250 nM	40 nM	30 nM
O=C(CCCCCN1C[C@H](O)[C@@H](O)[C@H](O)[C@@H]1CO)NC12CC3CC(CC(C3)C1)C2	40000 nM	400 nM	15 nM
OC[C@@H]1[C@@H](O)[C@H](O)[C@@H](O)CN1CCCCCOCc1ccc(-c2cncnc2)cc1	10000 nM	2000 nM	25 nM
O=C(CCCCCN1C[C@H](O)[C@@H](O)[C@H](O)[C@H]1CO)NC12CC3CC(CC(C3)C1)C2	500 nM	1000 nM	9 nM

Further lines, results first:

IC50 [1]	IC50 [2]	IC50 [3]	SMILES
10000 nM	80 nM	2 nM	OC[C@H]1[C@@H](O)[C@H](O)[C@@H](O)CN1CCCCCOCC1C2CC3CC(C2)CC1C3 (stereo partly specified)
1500 nM	500 nM	4 nM	OC[C@@H]1[C@@H](O)[C@H](O)[C@@H](O)CN1CCCCCOCC1CCCCC1
1000 nM	3 nM	1 nM	OC[C@@H]1[C@@H](O)[C@H](O)[C@@H](O)CN1CCCCCOCc1ccc2ccccc2c1
5000 nM	250 nM	2.5 nM	OC[C@H]1[C@@H](O)[C@H](O)[C@@H](O)CN1CCCCCCOCC12CC3CC(CC(C3)C1)C2
500 nM		2 nM	OC[C@@H]1[C@@H](O)[C@H](O)[C@@H](O)CN1CCCCCOCc1ccc(-c2ccc3c(c2)OCO3)cc1
300 nM	750 nM	1 nM	OC[C@@H]1[C@@H](O)[C@H](O)[C@@H](O)CN1CCCCCOCc1ccccc1
500 nM	3 nM	3 nM	OC[C@@H]1[C@@H](O)[C@H](O)[C@@H](O)CN1CCCCCOCc1ccc2ccc3cccc4ccc1c2c34
200 nM	300 nM	2 nM	OC[C@@H]1[C@@H](O)[C@H](O)[C@@H](O)CN1CCCCCCOCC12CC3CC(CC(C3)C1)C2
		1 nM	OC[C@@H]1[C@@H](O)[C@H](O)[C@@H](O)CN1CCCCCOCc1ccc(-c2cccc(F)c2)cc1
50000 nM	3 nM	1 nM	OC[C@H]1[C@@H](O)[C@H](O)[C@@H](O)CN1CCCCCOCc1ccc2ccccc2c1
15000 nM	3 nM	1 nM	OC[C@H]1[C@@H](O)[C@H](O)[C@@H](O)CN1CCCCCOCc1ccc2ccc3cccc4ccc1c2c34
		3 nM	COc1ccccc1-c1ccc(COCCCCCN2C[C@H](O)[C@@H](O)[C@H](O)[C@H]2CO)cc1
400 nM	300 nM	1 nM	OC[C@@H]1[C@@H](O)[C@H](O)[C@@H](O)CN1CCCCCOCC1C2CC3CC(C2)CC1C3 (stereo partly specified)
